Experimental data: patent US20100310542A1, “Pharmaceutical Compositions for treating wouds and related methods” (HEALOR LTD., priority 2007, published 2010)
* marks the point of attachment. Myristoyl = CCCCCCCCCCCCCC(=O)*

Experiments:
[1] = tested on: keratin 1; test: keratin 1 expression by Western blot in keratinocytes; format: cell-based, mice; conditions: visfatin 0.0001 μg/ml or L-alpha 100 ng/ml, 24 hours after calcium-induced differentiation
Source text: Medium A and B are both EMEM eagle's minimal essential medium from Biological Industries (Israel) containing 8% CHELEX™ treated fetal bovine serum. CHELEX™ is a strong chelator which binds free Ca^2+ and Mg^2+ ions to prevent these ions from being bioavailable to the cultured cells.
Primary skin keratinocytes isolated from the tails of adult mice (7-10 months up to 2 years) were maintained in medium A (MEM) as described above. After 5 days in (medium A), the growth medium in half of the cultured plates was replaced with medium B (as described above)
Next visfatin or L-alpha were each individually added to cells cultured in medium A (FIG. 19A) and cells cultured in medium B (FIG. 19B) as indicated in FIG. 19. The final concentration in the culture medium of visfatin was 0.0001 μg/ml visfatin. The final concentration in the culture medium of L-alpha was 100 ng/ml.
Cell differentiation was induced by elevating calcium from 0.05 mM to 0.12 mM as described above. Twenty-four (24) hours after differentiation cells were harvested and Western Blot analysis was performed. […] Keratin 1 expression was then quantified using standard densitometric methods […]
Cell differentiation was then induced by elevating calcium levels in the culture medium from 0.05 mM to 0.12 mM. […] Expression was assessed using standard Western blotting and densitometry techniques.

[2] = tested on: full thickness skin incisions; test: severe inflammatory burden at incision wounds in mice; format: in vivo, C57BL/6J mice; conditions: peptide 1 μM daily, 7 days
Protocol: Full thickness (20 mm long) skin incisions were performed on the upper back of anesthetized C57BL/6J mice (6 mice per group). Following incisions, wounds were treated daily with Myr-pseudosubstrate PKCα peptide, 1 μM applied directly on the wounds in the various formulations (Formulation A-C) described above.
(§1) After 7 days, wounds were excised and subjected to histology and immunohistochemistry. Inflammatory burden was considered severe when at least 2 of the 3 following parameters were present at the wound gap: (1) Abscess formation at the wounded area, (2) excessive leukocytosis (>100 cells in a fixed field×200), (3) high WBC/RBC ratio in blood vessels where >20% of WBC content within the blood vessels is shown in a fixed field (×200). Results are summarized and presented as percent of wounds with severe inflammation relative to the number of wounds in the group.
as §1, with “Full thickness (20 mm long) skin incisions were performed on the upper back of anesthetized C57BL/6J mice (6 mice per group). Following incision, wounds were treated daily with PKCα inhibitor (Pseudosubstrate PKCα peptide, 1 μM) applied directly to the wounds in the various formulations (Formulation A-C) described above. After” for “After”, “per total” for “relative to the number of”

[3] = tested on: PKCα; test: PKCα activity assay in keratinocytes overexpressing PKCα; format: cell-based, murine; conditions: Formulation A; peptide 1 μM for 15 minutes; PKCα overexpressing cells; relative to controls
Protocol: Transduction of keratinocytes with PKC isoform genes: The culture medium was aspirated and keratinocyte cultures were infected with PKC recombinant adenoviruses encoding specific PKC isoforms such as PKCα for one hour. The cultures were then washed twice with MEM and re-fed. Ten hours post-infection cells were transferred to serum-free low Ca^2+-containing MEM for 24 hours.
PKC activity: Specific PKC activity was determined in freshly prepared immunoprecipitates from keratinocyte cultures following appropriate treatments. These lysates were prepared in RIPA buffer without NaF. Activity was measured using the SignaTECT Protein Kinase C Assay System (Promega, Madison, Wis., USA) according to the manufacturer's instructions. PKCα pseudosubstrate was used as the substrate in these studies.
PKC immunokinase assay: Purified and standardized PKC isozymes were kindly supplied by Dr. P. Blumberg (NCl, NIH, U.S.) and Dr. Marcello G. Kazanietz (University of Pennsylvania, School of Medicine). Primary keratinocytes were harvested in 500 μl […] (1% Triton-X 100, 10 μg/ml aprotinin and leupeptin, 2 μg/ml pepstatin, 1 mM PMSF, 1 mM EDTA, 200 μM […], 10 mM NaF in 1×PBS). Lysates were incubated at 4° C. for 30 minutes, and spun at 16,000×g for 30 minutes at 4° C. Supernatants were transferred to a fresh tube. […]

[4] = tested on: full thickness skin incisions; test: incision wound healing in mice, percent of healed wounds; format: in vivo, C57BL/6J mice; conditions: agent alone, all formulations (A-C); daily, 7 days; vs groups treated with formulations alone; listed as pseudosubstrate peptide
Protocol: In vivo incision wound generation and inducement of inflammation: Full thickness (20 mm long) skin incisions were performed on the upper back of anesthetized C57BL/6J mice (6 mice per group). […] the incision, wounds were treated daily with insulin (10^−6 M; 0.1 units/ml); pseudosubstrate PKCα peptide, 1 μM (PKCα inhibitor); or Insulin+PKCα inhibitor (Myr-pseudosubstrate PKCα peptide, 1 μM and insulin 0.1 units) applied directly on the wounds in the various formulations (Formulations A-C) as described above. After 7 days, wounds were excised and the percentage of healed wounds was evaluated by examining the morphology and histology of the wounds. Results are presented as percent of healed wounds relative to the total number of wounds per group. […] Full thickness (20 mm long) skin incisions were performed on the upper back of anesthetized C57BL/6J mice (6 mice per group). […] After 7 days, wounds were excised and the percentage of healed wounds was evaluated by examining the morphology and histology of the wounds. […]

Molecule	expression of keratin 1 ([1]; medium A (no KCl))	expression of keratin 1 ([1]; medium B (KCl 0.4 mg/ml))	severe inflammation (percent of wounds with severe inflammation) ([2]; Formulation A)	severe inflammation (percent of wounds with severe inflammation) ([2]; Formulation B)	severe inflammation (percent of wounds with severe inflammation) ([2]; Formulation C)	inhibition of PKCα activity [3]	healing of wounds (percent of healed wounds) [4]
CCCCCCCCCCCCCCCC(=O)OC[C@H](COP(=O)(O)OC1C(O)C(OP(=O)(O)O)C(OP(=O)(O)O)C(OP(=O)(O)O)C1O)OC(=O)CCCCCCCCCCCCCCC.N.N.N.N.N.N.N (stereo partly drawn) [L-alpha, L-α-Phosphatidylinositol-3,4,5-trisphosphate, Dipalmitoyl-, Heptaammonium Salt]	decreased relative to the control sample	not significantly altered					
Myr*-Phe-Ala-Arg-Lys-Gly-Ala-Leu-Arg-Gln-OH (Myristoyl-FARKGALRQ-OH; SMILES CCCCCCCCCCCCCC(=O)N[C@@H](Cc1ccccc1)C(=O)N[C@@H](C)C(=O)N[C@@H](CCCNC(=N)N)C(=O)N[C@@H](CCCCN)C(=O)NCC(=O)N[C@@H](C)C(=O)N[C@@H](CC(C)C)C(=O)N[C@@H](CCCNC(=N)N)C(=O)N[C@@H](CCC(N)=O)C(=O)O) [PKCα inhibitor, myristoylated peptide corresponding to the pseudosubstrate region of PKCα, CAS 147217-25-2]			significant reduction in severe inflammation	No reduction in inflammatory burden	No reduction in inflammatory burden	able to significantly inhibit PKCα activity	did not promote wound healing efficacy
